Assay results published in the supplement of paper PMC11616607.

Assays:
Experiment in all cases: drug sensitivity score (DSS) from 5-point dose-response viability curve (DSS (area-under-curve based score)); higher = more sensitive (stronger growth inhibition or killing); extreme values may be limits of the assay
Conditions in all cases: exposure time: 72 h; concentration range: 5 concentrations over 10,000-fold range
[1] = test system: CAOV3
Procedure, shortened: (§1)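 Ovarian cancer and normal ovarian cell lines were tested in 384-well plates. Drugs were acoustically dispensed (Echo 550) in DMSO or water at five concentrations spanning a 10,000-fold range, then 1,500 cells per well were added and incubated 3 days at 37°C, 5% CO2. Viability was read by CellTiter-Glo luminescence on a PHERAstar FS. Drug sensitivity score was derived per cell line and drug with Breeze software; higher means more sensitive, zero means no response.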

[2] = test system: COV318
Procedure, shortened: as §1

[3] = test system: COV362
Procedure, shortened: as §1

[4] = test system: HOSE1C
Procedure, shortened: as §1

[5] = test system: HOSE2C
Procedure, shortened: as §1

[6] = test system: JHOS2
Procedure, shortened: as §1

[7] = test system: Kuramochi
Procedure, shortened: as §1

[8] = test system: OV90
Procedure, shortened: as §1

[9] = test system: OVCAR4
Procedure, shortened: as §1

[10] = test system: OVCAR5
Procedure, shortened: as §1

[11] = test system: OVCAR8
Procedure, shortened: as §1

[12] = test system: Ovsaho
Procedure, shortened: as §1

| SMILES | drug sensitivity score [1] | drug sensitivity score [2] | drug sensitivity score [3] | drug sensitivity score [4] | drug sensitivity score [5] | drug sensitivity score [6] | drug sensitivity score [7] | drug sensitivity score [8] | drug sensitivity score [9] | drug sensitivity score [10] | drug sensitivity score [11] | drug sensitivity score [12] |
| --- | --- | --- | --- | --- | --- | --- | --- | --- | --- | --- | --- | --- |
| CC(C)(C)c1cc(NC(=O)Nc2ccc(Oc3ccnc4[nH]c(=O)cnc34)cc2F)n(-c2ccccc2)n1 | 2.8 | 0 | 0 | 16.2 | 12.8 | 0.5 | 2.3 | 12.4 | 2.8 | 1.8 | 2 | 1.6 |
| CCn1c(-c2nonc2N)nc2c(C#CC(C)(C)O)ncc(OC[C@H]3CCCNC3)c21 | 4.3 | 0 | 1.3 | 1.4 | 3.7 | 0 | 2.9 | 0.6 | 0 | 0 | 0 | 0.5 |
| CCn1cc(-c2ccnc3[nH]c(-c4cccc(CN(C)C)c4)cc23)c(-c2ccc(NC(=O)N(C)C)cc2)n1 | 17 | 0.2 | 0.2 | 1.3 | 1.4 | 0 | 0.4 | 0.3 | 2.9 | 2 | 1.9 | 1.2 |
| CN1CCN(C2CCC(n3cc(-c4ccc(Oc5ccccc5)cc4)c4c(N)ncnc43)CC2)CC1 (configuration not stated) | 11.4 | 6.9 | 11.5 | 7.8 | 9.3 | 7.1 | 12.6 | 10.3 | 7.6 | 15.1 | 9.4 | 15.6 |
| CNC(=O)c1ccccc1Nc1nc(Nc2ccc3c(c2OC)CCC[C@H](N2CCN(CCO)CC2)C3)ncc1Cl | 8.2 | 5.2 | 5.4 | 4.8 | 8.4 | 7.6 | 6.4 | 8.8 | 5.2 | 9.1 | 4.9 | 8.5 |
| CNc1nc(-c2ccc3c(N)n[nH]c3c2)cc(N2C[C@@H](C(=O)NC3CCCCC3)CC[C@H]2C)n1 | 1.9 | 0.1 | 0 | 4.5 | 2.6 | 0.7 | 0.5 | 0 | 0 | 0 | 1.2 | 1.1 |
| CONC(=O)c1ccccc1Nc1cc(Nc2cc(C)nn2C(C)C)ncc1Cl | 0 | 0 | 0.2 | 0 | 0 | 0.1 | 1.4 | 0 | 0.1 | 0.3 | 0 | 3.1 |
| COc1cc2ncnc(Oc3cccc(NC(=O)Nc4cc(C(C)(C)C(F)(F)F)on4)c3)c2cc1OC | 0 | 0 | 0 | 1.3 | 0 | 1.5 | 0.4 | 2.4 | 0 | 3 | 0 | 0 |
| COc1ccc2[nH]cc(/C=C3\C(=O)Nc4ccc(NC(=O)CCN5CCCCC5)cc43)c2c1 | 6.3 | 5.4 | 8.7 | 4.8 | 6.1 | 5 | 5.7 | 11.7 | 4.9 | 9.4 | 8.8 | 4.6 |
| C[C@@H](Oc1cc(-n2cnc3ccc(CN4CCN(C)CC4)cc32)sc1C(N)=O)c1ccccc1C(F)(F)F | 22.4 | 6.8 | 3.6 | 13.7 | 10.1 | 15.3 | 7.7 | 19.6 | 3.6 | 19.4 | 29.1 | 24.7 |
| O=C(NC[C@H](O)CN1CCc2ccccc2C1)c1cc(NC2COC2)ncn1 | 0 | 0.2 | 0 | 0 | 0 | 0.7 | 0.4 | 0 | 2 | 0.8 | 0 | 0 |
| O=C1Cc2cc(C(=O)NC3C[C@H]4CC[C@@H](C3)N4S(=O)(=O)CC3CCN(CCCC(F)(F)F)CC3)c(Cl)cc2N1 (some centres not stated) | 0 | 0 | 0 | 0 | 0 | 0 | 0 | 0.6 | 0 | 0 | 0 | 0 |
| CCN(CC)CCCC(C)Nc1ccnc2cc(Cl)ccc12 (configuration not stated) [Chloroquine] | 7.2 | 4.9 | 5.5 | 6.3 | 7.2 |  |  | 10 | 6.2 | 8.8 | 5.8 | 8.1 |
| Nc1ccn([C@@H]2O[C@H](CO)[C@@H](O)[C@@H]2O)c(=O)n1 [Cytarabine] | 14.9 | 1 | 2.3 | 14 | 6.6 | 8.6 |  | 4.4 | 0 | 10.6 | 14.3 | 2 |
| Cc1ccc(NC(=O)c2ccc(CN3CCN(C)CC3)cc2)cc1Nc1nccc(-c2cccnc2)n1 [Imatinib] | 0 | 0 | 0.3 | 0.2 | 0 | 0 |  | 1.5 | 0 | 1.3 | 0.5 | 0 |
| CC[C@H](CO)Nc1nc(NCc2ccccc2)c2ncn(C(C)C)c2n1 [Seliciclib] | 0.4 | 1.1 | 0 | 1.1 | 0 | 1.2 |  | 0.3 | 0 | 3.4 | 1.6 | 0.1 |
